Where a SMILES comes first, the peptide text is derived from it. [ ]: non-standard residue; d: D form. ξ: configuration not given here. ξGly(dodecyl) = CCCCCCCCCCCCC(N)C(=O)O; ξGly(decyl) = CCCCCCCCCCC(N)C(=O)O; ξGly(octyl) = CCCCCCCCC(N)C(=O)O; ξAoc(2) = CCCCCCC(N)C(=O)O
Legend:
[1] = Stability in human Caco-2 homogenates after 2 hrs; format: ADME; conditions: Caco-2 cell homogenates, read-out: Stability
[2] = Apparent permeability across human Caco-2 cells; format: ADME, cell-based
Caco-2 [3] = test: Stability in human Caco-2 homogenates after 20 mins; format: ADME; conditions: caco-2, 20 min
Caco-2 [4] = test: Stability in human Caco-2 homogenates after 10 mins; format: ADME; conditions: caco-2, 10 min
[5] = Stability in human Caco-2 homogenates after 1 hr; format: ADME; conditions: Caco-2 cell homogenates, read-out: Stability

CCCCCCCCCCC(N)C(=O)NC(CCCCCCCCCC)C(=O)N[C@@H](CCC(=O)O)C(=O)N[C@@H](Cc1c[nH]c2ccccc12)C(N)=O (some centres not stated) (H-[ξGly(decyl)][ξGly(decyl)]EW-NH2)
remaining at 2 h [1]: 90% | Papp [2]: 3.09 ×10⁻⁶ cm/s | Activity (Caco-2 [3]): Not Active

CCCCCCC(NC(=O)[C@@H](N)CCC(=O)O)C(=O)N[C@@H](Cc1c[nH]c2ccccc12)C(N)=O (some centres not stated) (H-Glu-[ξAoc(2)]-Trp-NH2)
remaining at 2 h [1]: 40% | Papp [2]: 3.83 ×10⁻⁶ cm/s

CCCCCCCCC(NC(=O)[C@@H](N)CCC(=O)O)C(=O)N[C@@H](Cc1c[nH]c2ccccc12)C(N)=O (some centres not stated)
remaining at 2 h [1]: 40% | Stability (Caco-2 [4]): 15% | Papp [2]: 3.99 ×10⁻⁶ cm/s

CCCCCCCCCCCCC(N)C(=O)NC(CCCCCCCCCCCC)C(=O)N[C@@H](CCC(=O)O)C(=O)N[C@@H](Cc1c[nH]c2ccccc12)C(N)=O (some centres not stated) (H-[ξGly(dodecyl)][ξGly(dodecyl)]EW-NH2)
remaining at 2 h [1]: 90% | Papp [2]: 2.77 ×10⁻⁶ cm/s | Activity (Caco-2 [3]): Not Active

CCCCCCCCC(N)C(=O)N[C@@H](CCC(=O)O)C(=O)N[C@@H](Cc1c[nH]c2ccccc12)C(N)=O (some centres not stated)
remaining at 2 h [1]: 40% | Papp [2]: 1.55 ×10⁻⁶ cm/s

NC(=O)[C@H](Cc1c[nH]c2ccccc12)NC(=O)[C@@H](N)CCC(=O)O (H-Glu-Trp-NH2)
remaining at 2 h [1]: 35% | Papp [2]: 7.76 ×10⁻⁶ cm/s

CCCCCCCCC(N)C(=O)NC(CCCCCCCC)C(=O)N[C@@H](CCC(=O)O)C(=O)N[C@@H](Cc1c[nH]c2ccccc12)C(N)=O (some centres not stated) (H-[ξGly(octyl)][ξGly(octyl)]EW-NH2)
remaining at 2 h [1]: 40% | Stability (Caco-2 [4]): 15% | Papp [2]: 1.79 ×10⁻⁶ cm/s | Activity (Caco-2 [3]): Not Active

CCCCCCC(N)C(=O)NC(CCCCCC)C(=O)N[C@@H](CCC(=O)O)C(=O)N[C@@H](Cc1c[nH]c2ccccc12)C(N)=O (some centres not stated) (H-[ξAoc(2)][ξAoc(2)]EW-NH2)
remaining at 2 h [1]: 90% | Papp [2]: 8.32 ×10⁻⁶ cm/s | Activity (Caco-2 [3]): Not Active

CCCCCCCCCCCCC(N)C(=O)N[C@@H](CCC(=O)O)C(=O)N[C@@H](Cc1c[nH]c2ccccc12)C(N)=O (some centres not stated)
remaining at 2 h [1]: 65% | Papp [2]: 1.02 ×10⁻⁶ cm/s | remaining at 1 h [5]: 75%

CCCCCCCCCCC(N)C(=O)N[C@@H](CCC(=O)O)C(=O)N[C@@H](Cc1c[nH]c2ccccc12)C(N)=O (some centres not stated)
remaining at 2 h [1]: 65% | Papp [2]: 9.26 ×10⁻⁶ cm/s | remaining at 1 h [5]: 75%

CCCCCCC(N)C(=O)N[C@@H](CCC(=O)O)C(=O)N[C@@H](Cc1c[nH]c2ccccc12)C(N)=O (stereo partly drawn) (H-[ξAoc(2)]-Glu-Trp-NH2)
remaining at 2 h [1]: 40% | Papp [2]: 4.84 ×10⁻⁶ cm/s

CCCCCCCCCCC(NC(=O)[C@@H](N)CCC(=O)O)C(=O)N[C@@H](Cc1c[nH]c2ccccc12)C(N)=O (some centres not stated)
remaining at 2 h [1]: 40% | Papp [2]: 4.66 ×10⁻⁶ cm/s

From ChEMBL document CHEMBL1140474, “Enhancement of oral drug absorption-effect of lipid conjugation on the enzymatic stability and intestinal permeability of l-Glu-l-Trp-NH(2)” (Bioorg Med Chem, 2007)
